Assay results reported in patent publication US8383656B2, “Thiazolidinedione energy restriction-mimetic agents” (The Ohio State University Research Foundation, priority 2009, dated 2013).
Like-named read-outs stand apart in the source and are kept apart here.

Key:
[1] = tested on: LNCaP prostate cancer cells; test: MTT cell viability assay, LNCaP cells; format: cell-based; settings: Homo sapiens
Protocol: The compounds were tested for their ability to decrease LNCaP prostate cancer cell viability as measured by the 3-(4,5-dimethylthiazol-2-yl)-2,5-diphenyltetrazolium bromide) (MTT) assay.
(§1) Cell viability was determined using the 3-(4,5-dimethylthiazol-2-yl)-2,5-diphenyltetrazolium bromide) (MTT) assay. LNCaP and MCF-7 cells were seeded in 96-well plates (5000 cells/well) and incubated in their respective culture media supplemented with 10% FBS for 24 h. […] Drug-containing medium was then replaced with 1×MTT (0.5 mg/mL in RPMI 1640), followed by incubation at 37° C. for 2 h. After removal of medium, the reduced MTT dye was solubilized in 200 μL/well DMSO, and absorbances were measured at 570 nm.

[2] = tested on: Sirt1 gene expression in LNCaP cells; test: Time course of Sirt1 expression in LNCaP cells (Western blot/RT-PCR); format: cell-based; settings: OSU-CG12 10 μM, 2-DG 10 mM
Protocol: Total RNA was isolated from drug-treated LNCaP cells using the RNeasy mini kit (Qiagen, Valencia, Calif.), and then reverse-transcribed to cDNA using the Omniscript RT Kit (Qiagen) according to manufacturer's instructions. PCR products were separated electrophoretically in 1% agarose gels and visualized by ethidium bromide staining.
Transfections were performed by electroporation using Nucleofector kit R of the Amaxa Nucleofector system (Amaxa Biosystems, Cologne, Germany). LNCaP cells were transfected with the following plasmids or siRNA: WT- and H363Y-Flag-Sirt1 (DN-Sirt1), WT- and K45R-Myc-AMPK (DN-AMPK), GFP-LC3, TSC2 shRNA, and DDIT3 siRNA (GADD153). […] For the fluorescent microscopic analysis, LNCaP cells transfected with the GFP-LC3 expression plasmid or with scrambled or TSC2 shRNA were treated as indicated for 36 h. After cells were fixed with 3.7% formaldehyde at room temperature for 20 min, nuclear counterstaining was performed using a 4,6-diamidino-2-phenylindole (DAPI)-containing mounting medium (Vector Laborotaries, Burlingame, Calif.) before examination. Images were observed using a Nikon microscope (Eclipse TE300).

[3] = tested on: glucose metabolism; test: In vitro potency in blocking glucose metabolism; format: cell-based
[4] = tested on: normal prostate epithelial cells (PrECs)
Protocol: LNCaP hormone-responsive prostate cancer cells and MCF-7 ERα-positive breast cancer cells were obtained from the American Type Culture Collection (Manassas, Va.) and maintained with 10% fetal bovine serum (FBS)-supplemented RPMI 1640 medium and F12/DMEM medium, respectively. Nonmalignant prostate epithelial cells (PrEC) were maintained in prostate epithelial growth medium (PrEGM) (Lonza Inc., Walkersville, Md.). All cells were cultured at 37° C. in a humidified incubator containing 5% CO2. […] Glucose-free RPMI 1640 medium was purchased from Invitrogen (Carlsbad, Calif.). 2-DG, resveratrol, 3-methyladenine (3-MA), nicotinamide and splitomicin were purchased from Sigma-Aldrich (St. Louis, Mo.). The AMPK inhibitor Compound C and cycloheximide were obtained from Calbiochem (San Diego, Calif.). These agents were added to medium with a final DMSO concentration of 0.1%.
as §1

[5] = tested on: MCF-7 breast cancer cells; test: MTT cell viability assay, MCF-7 cells; format: cell-based; settings: Homo sapiens, MCF7, 72 h, 10% FBS-supplemented medium, read-out: IC50 in inhibiting the viability of MCF-7 breast cancer cells
Protocol: as §1

[6] = tested on: cancer cells; settings: reported in literature; cited from earlier work
[7] = tested on: LPS-stimulated IL-6 production in THP-1 macrophages; test: ELISA of LPS-stimulated IL-6 production in THP-1 macrophages; format: cell-based, human; settings: 10 μM; for first-tier screening result (AMPK/mTOR activation status and IL-6/IL-6 receptor signaling): LPS-stimulated THP-1 macrophages; for inhibition at 10 µM: Homo sapiens, 6 h, LPS-stimulated THP-1, read-out: inhibition of IL-6 production
Protocol: Cells and cell culture. THP-1 monocytic cells were purchased from the American Type Culture Collection (Rockville, Md.), and maintained with L-glutamine-containing RPMI 1640 supplemented with 10% fetal bovine serum (FBS), 0.25% glucose, 0.01% sodium pyruvate, 50 μM 2-mercaptoethanol, and 0.1 ml/ml penicillin/streptomycin/L-glutamine. Differentiation of THP-1 monocytes into macrophages was carried out by exposure to PMA (50 nM) in the aforementioned RPMI 1640 medium for 24 h. Colon-26 (C-26) adenocarcinoma cells were provided by a researcher at The Ohio State University. The C-26 cells were maintained in RPMI 1640 medium supplemented with 5% FBS and 1% penicillin/streptomycin.
ELISA. IL-6 release by differentiated THP-1 macrophages in response to 10 ng/ml of LPS was analyzed by using the IL-6 ELISA kit (Cayman Chemical Co.; Ann Arbor, Mich.) according to the manufacturer's instruction in triplicate. The effect of each test compound on LPS-stimulated IL-6 release is presented as percent inhibition and was calculated using the following formula: percentage inhibition=100%×{1−[(O.D. of sample−O.D. of control)/(O.D. of LPS−O.D. of control)]}.

[8] = tested on: human tumor cell lines of the cancer screening panel; test: NCI60 cell line screening; format: cell-based; settings: 48 h, SRB; variety of cancer cell types
Protocol: The NCI60 screening method was carried out using the following methodology. The human tumor cell lines of the cancer screening panel were grown in RPMI 1640 medium containing 5% fetal bovine serum and 2 mM L-glutamine. The cells were then inoculated into 96 well microtiter plates in 100 μL at plating densities ranging from 5,000 to 40,000 cells/well depending on the doubling time of individual cell lines. After cell inoculation, the microtiter plates are incubated at 37° C., 5% CO2, 95% air and 100% relative humidity for 24 h prior to addition of the thiazolidinedione derivatives. […]
Following drug addition, the plates were incubated for an additional 48 h at 37° C., 5% CO2, 95% air, and 100% relative humidity. […] Bound stain is subsequently solubilized with 10 mM trizma base, and the absorbance was read on an automated plate reader at a wavelength of 515 nm. […] Using the seven absorbance measurements [time zero, (Tz), control growth, (C), and test growth in the presence of drug at the five concentration levels (Ti)], the percentage growth is calculated at each of the drug concentrations levels. Percentage growth inhibition is calculated as: [(Ti−Tz)/(C−Tz)]×100 for concentrations for which Ti>/=Tz [(Ti−Tz)/Tz]×100 for concentrations for which Ti<Tz.
Three dose response parameters were calculated for each experimental agent. […]

[9] = tested on: THP-1 cells; test: MTT viability of THP-1 cells; format: cell-based, human; settings: at the concentrations used for IL-6 ELISA (dose range b224, 10 μM b226, 1 μM b229)
[10] = tested on: [3H]-2-DG uptake into LNCaP cells; test: Glucose uptake assay ([3H]-2-DG); format: cell-based; settings: OSU-CG12 at 5 and 10 μM, resveratrol at 50 and 100 μM, P<0.05
Protocol: After washing cells with PBS, glucose uptake was initiated by addition of 1 mL of PBS containing 1 μCi/mL [^3H]-2-DG (Perkin Elmer, Waltham, Mass.) and […] nonradioactive 2-DG. After 5 min, glucose uptake was terminated by extensive washing with PBS, and cells were solubilized in 0.1% SDS buffer. Aliquots were taken for measurements of radioactivity using a scintillation counter LS6500 (Beckman).

[11] = LNCaP, MTT, 72 h, 10% FBS-supplemented medium, read-out: IC50 in inhibiting the viability of LNCaP prostate cancer cells

| IC50 [1, 11] [µM] | IC50 [5] [µM] | SMILES | first-tier screening result (AMPK/mTOR activation status and IL-6/IL-6 receptor signaling) [7] | inhibition at 10 µM [7] [%] | further results |
| --- | --- | --- | --- | --- | --- |
|  |  | CCOc1c(C)c(C)c2c(c1C)CCC(C)(COc1ccc(C=C3SC(=O)NC3=O)cc1Br)O2 (stereo not shown) [Compound 8, 5-[3-Bromo-4-(6-ethoxy-2,5,7,8-tetramethyl-chroman-2-ylmethoxy)-benzylidene]-thiazolidine-2,4-dione] | active | > 80 |  |
|  |  | CCCCOc1c(C)c(C)c2c(c1C)CCC(C)(COc1ccc(C=C3SC(=O)NC3=O)cc1OC)O2 (stereo not shown) [Compound 12, 5-[4-(6-Butoxy-2,5,7,8-tetramethyl-chroman-2-ylmethoxy)-3-methoxy-benzylidene]-thiazolidine-2,4-dione] | active | > 80 |  |
|  |  | Cc1c(C)c2c(c(C)c1OCCCC#N)CCC(C)(COc1ccc(C=C3SC(=O)NC3=O)cc1Br)O2 (stereo not shown) [Compound 21, 4-{2-[2-Bromo-4-(2,4-dioxo-thiazolidin-5-ylidenemethyl)-phenoxymethyl]-2,5,7,8-tetramethyl-chroman-6-yloxy}-butyronitrile] | active | > 80 |  |
|  |  | CCCN1C(=O)SC(=Cc2ccc(O)c(C(F)(F)F)c2)C1=O [Compound 44, 5-(4-Hydroxy-3-trifluoromethyl-benzylidene)-3-propyl-thiazolidine-2,4-dione] |  | > 80 |  |
|  |  | COc1ccc(S(=O)(=O)Nc2ccc(C=C3SC(=O)N(CC4(C)CCCCC4)C3=O)cc2)cc1 [Compound 49, 4-Methoxy-N-{4-[3-(1-methyl-cyclohexylmethyl)-2,4-dioxo-thiazolidin-5-yli-denemethyl]-phenyl}-benzenesulfonamide] | active |  |  |
|  |  | CC1(CN2C(=O)SC(=Cc3ccc(NS(=O)(=O)c4ccc([N+](=O)[O-])cc4)cc3)C2=O)CCCCC1 [Compound 54, N-{4-[3-(1-Methyl-cyclohexylmethyl)-2,4-dioxo-thiazolidin-5-ylidenemethyl]-phenyl}-4-nitro-benzenesulfonamide] | active | > 80 |  |
|  |  | CCC(CC)CN1C(=O)S/C(=C\c2ccc(O)c(C(F)(F)F)c2)C1=O [OSU-CG5, (Z)-3-(2-Ethyl-butyl)-5-(4-hydroxy-3-trifluoromethyl-benzylidene)-thiazolidine-2-4-dione] |  |  | antitumor potency in NCI 60 cell line screening [8]: significantly antitumor potency |
| 12 | 11 | C=CCOc1c(C)c(C)c2c(c1C)CCC(C)(COc1ccc(/C=C3\SC(=O)NC3=O)cc1Br)O2 (stereo not shown) [STG28] |  |  |  |
| 70 | 42 | CC1(COc2ccc(CC3SC(=O)NC3=O)cc2)CCCCC1 (stereo not shown) [ciglitazone] |  |  | effect on viability of THP-1 cells [9]: neither agent inhibited the viability of THP-1 cells |
| 70 | 70 | Cc1c(C)c2c(c(C)c1O)CCC(C)(COc1ccc(CC3SC(=O)NC3=O)cc1)O2 (stereo not shown) [troglitazone] |  |  |  |

| SMILES | IC50 [1, 11] [µM] | IC50 [5] [µM] | first-tier screening result (AMPK/mTOR activation status and IL-6/IL-6 receptor signaling) [7] | inhibition at 10 µM [7] [%] | further results |
| --- | --- | --- | --- | --- | --- |
| O=CC[C@@H](O)[C@H](O)[C@H](O)CO [2-DG, 2-deoxyglucose] | 5500 | 4200 |  |  | duration of transient transcriptional activation of Sirt1 gene expression [2]: 4 h; IC50 [3]: ≥ 4000 µM; cytotoxicity to normal prostate epithelial cells (PrECs) [4]: low cytotoxicity; dose range inducing autophagy in cancer cells [6]: 5 to 25 mM |
| Oc1ccc(C=Cc2cc(O)cc(O)c2)cc1 [resveratrol] | 110 | 60 |  |  | IC50 ([1]; summary over LNCaP and MCF-7 cells, read-out: IC50 in suppressing cancer cell growth): 60 to 110 µM; IC50 [3]: ≥ 50 µM; inhibition of glucose uptake [10]: significantly inhibit glucose uptake; cytotoxicity to normal prostate epithelial cells (PrECs) [4]: low cytotoxicity; dose range inducing autophagy in cancer cells [6]: 0.05 to 0.1 mM |
